Where “and” joins values, the source holds several entries; their conditions need not be identical. Equal entries are not always repeated. Inconclusive results and toxic doses are left out. Rule for the calls: active = survival T/C of 150% or more; inactive = T/C below 125% in these data.
Tested on: P388 leukemia ip, CD2F1 mice, survival T/C
Test: NCI In Vivo Anticancer Drug Screen. Data for tumor model P388 Leukemia (intraperitoneal) in CD2F1 (CDF1) mice
Conditions: endpoint: median survival time, higher = longer survival
Summary of the method: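 Mice carrying the transplanted tumor received test compound or vehicle. Survival was recorded in each group, and the value is the treated-group measurement divided by that of the vehicle-treated control group.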

[1] = dose: 50.0 mg/kg/injection, schedule: Q01DX009 (ip), vehicle: saline with Tween-80
[2] = dose: 100.0 mg/kg/injection, schedule: Q01DX009 (ip), vehicle: saline with Tween-80
[3] = dose: 200.0 mg/kg/injection, schedule: Q01DX009 (ip), vehicle: saline with Tween-80
[4] = dose: 12.5 mg/kg/injection, schedule: Q01DX009 (ip), vehicle: saline with Tween-80
[5] = dose: 25.0 mg/kg/injection, schedule: Q01DX009 (ip), vehicle: saline with Tween-80

Measured: T/C

C=C1C(=O)OC2C1CCC1(C)CC(Br)C(=O)C(C)C21 (stereo not given)
inactive: dose: 50.0 mg/kg/injection, schedule: Q04DX002 (ip), vehicle: saline with Tween-80 104 % of control and 108 % of control and 95 % of control | dose: 100.0 mg/kg/injection, schedule: Q04DX002 (ip), vehicle: saline with Tween-80 100 % of control and 111 % of control and 112 % of control | dose: 200.0 mg/kg/injection, schedule: Q04DX002 (ip), vehicle: saline with Tween-80 106 % of control and 108 % of control | dose: 400.0 mg/kg/injection, schedule: Q04DX002 (ip), vehicle: saline with Tween-80 104 % of control

CC(C)(C)C(=O)CC(Cc1nccc2ccccc12)c1ccccc1 (stereo not given)
inactive: [1] 106 % of control | [2] 104 % of control | [3] 103 % of control

COC(=O)C1=C[C@H]2O[C@H]2[C@H](O)C1
inactive: dose: 1.5 mg/kg/injection, schedule: Q01DX005 (ip), vehicle: Klucel (hydroxypropylcellulose) (HPC) 100 % of control | dose: 3.0 mg/kg/injection, schedule: Q01DX005 (ip), vehicle: Klucel (hydroxypropylcellulose) (HPC) 106 % of control | dose: 6.0 mg/kg/injection, schedule: Q01DX005 (ip), vehicle: Klucel (hydroxypropylcellulose) (HPC) 101 % of control | dose: 12.0 mg/kg/injection, schedule: Q01DX005 (ip), vehicle: Klucel (hydroxypropylcellulose) (HPC) 100 % of control

COC(=O)C(C)n1c(C)csc1=S (stereo not given)
inactive: dose: 50.0 mg/kg/injection, schedule: Q01DX005 (ip), vehicle: saline with Tween-80 103 % of control | dose: 100.0 mg/kg/injection, schedule: Q01DX005 (ip), vehicle: saline with Tween-80 98 % of control

COn1nnc2c([N+](=O)[O-])cccc21
inactive: [4] 100 % of control | [5] 94 % of control | [1] 98 % of control

O=C(Nc1ccc(Nc2ccncc2)cc1)c1ccc(N2C(=O)c3ccccc3C2=O)cc1[N+](=O)[O-]
inactive: [1] 98 % of control | [2] 95 % of control | [3] 95 % of control

CC1=Nc2ccc([N+](=O)[O-])cc2N=C(C)C1
inactive: [1] 101 % of control | [2] 98 % of control | dose: 100.0 mg/kg/injection, schedule: Q04DX002 (ip), vehicle: saline 101 % of control | [3] 90 % of control | dose: 200.0 mg/kg/injection, schedule: Q04DX002 (ip), vehicle: saline 101 % of control | dose: 400.0 mg/kg/injection, schedule: Q04DX002 (ip), vehicle: saline 105 % of control

COC1=CC(=O)C2CC=CC3CC(=O)OC1C32C (stereo not given)
inactive: dose: 100.0 mg/kg/injection, schedule: Q04DX002 (ip), vehicle: Klucel (hydroxypropylcellulose) (HPC) 100 % of control | dose: 200.0 mg/kg/injection, schedule: Q04DX002 (ip), vehicle: Klucel (hydroxypropylcellulose) (HPC) 94 % of control | dose: 400.0 mg/kg/injection, schedule: Q04DX002 (ip), vehicle: Klucel (hydroxypropylcellulose) (HPC) 100 % of control

CCCCCCC(=O)/C=C/c1cccc(OCc2ccc(Cl)c(Cl)c2)c1
inactive: [1] 115 % of control | [2] 90 % of control | [3] 97 % of control

OC1CC2CC1C1C3C=CC(C3)C21 (stereo not given)
inactive: dose: 6.25 mg/kg/injection, schedule: Q01DX009 (ip), vehicle: saline with Tween-80 104 % of control | [4] 102 % of control | [5] 102 % of control

C=CCNC1=C2C[C@@H](C)C[C@H](OC)[C@H](O)[C@@H](C)/C=C(\C)[C@H](OC(N)=O)[C@@H](OC)/C=C\C=C(/C)C(=O)NC(=CC1=O)C2=O
inactive: dose: 6.25 mg/kg/injection, schedule: Q01DX009 (ip), vehicle: DMSO 108 % of control | dose: 6.25 mg/kg/injection, schedule: Q01DX009 (ip), vehicle: distilled water + Tween-80 112 % of control | dose: 12.5 mg/kg/injection, schedule: Q01DX009 (ip), vehicle: DMSO 100 % of control | dose: 12.5 mg/kg/injection, schedule: Q01DX009 (ip), vehicle: distilled water + Tween-80 112 % of control | dose: 25.0 mg/kg/injection, schedule: Q01DX009 (ip), vehicle: DMSO 107 % of control

CC12CC3(C)CC(C)(C1)CC(C(Cl)C(=O)O)(C2)C3 (stereo not given)
inactive: dose: 25.0 mg/kg/injection, schedule: Q01DX009 (ip), vehicle: suspension in saline 98 % of control | dose: 50.0 mg/kg/injection, schedule: Q01DX009 (ip), vehicle: suspension in saline 100 % of control

c1cc2c3c(ccc2c2c1OCN(C1CCCCC1)C2)OCN(C1CCCCC1)C3
inactive: dose: 3.12 mg/kg/injection, schedule: Q01DX005 (ip), vehicle: Klucel (hydroxypropylcellulose) (HPC) 96 % of control | dose: 6.25 mg/kg/injection, schedule: Q01DX005 (ip), vehicle: Klucel (hydroxypropylcellulose) (HPC) 91 % of control | dose: 12.5 mg/kg/injection, schedule: Q01DX005 (ip), vehicle: Klucel (hydroxypropylcellulose) (HPC) 90 % of control | dose: 200.0 mg/kg/injection, schedule: Q01DX005 (ip), vehicle: Klucel (hydroxypropylcellulose) (HPC) 94 % of control

From PubChem BioAssay AID330 (DTP/NCI, 2004)
